Assay results: PubChem BioAssay (NCI)
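Five concentrations, 48 hours, 96-well plates. TGI denotes the concentration required for complete inhibition of growth.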

Key:
Assay in all cases: NCI anticancer screen, dose series, 48 h
786-0 renal = test system: 786-0 renal
A549 NSCLC = test system: A549 NSCLC
ACHN renal = test system: ACHN renal
CAKI-1 renal = test system: CAKI-1 renal
CCRF-CEM leukemia = test system: CCRF-CEM leukemia
COLO 205 colon = test system: COLO 205 colon
DLD-1 colon = test system: DLD-1 colon
DMS 114 small cell lung = test system: DMS 114 small cell lung
DMS 273 small cell lung = test system: DMS 273 small cell lung
HCT-116 colon = test system: HCT-116 colon
HCT-15 colon = test system: HCT-15 colon
HL-60(TB) leukemia = test system: HL-60(TB) leukemia
HOP-18 NSCLC = test system: HOP-18 NSCLC
HOP-62 NSCLC = test system: HOP-62 NSCLC
HOP-92 NSCLC = test system: HOP-92 NSCLC
HT29 colon = test system: HT29 colon
IGROV1 ovarian = test system: IGROV1 ovarian
K-562 leukemia = test system: K-562 leukemia
KM12 colon = test system: KM12 colon
KM20L2 colon = test system: KM20L2 colon
LOX IMVI melanoma = test system: LOX IMVI melanoma
LXFL 529 NSCLC = test system: LXFL 529 NSCLC
M14 melanoma = test system: M14 melanoma
M19-MEL melanoma = test system: M19-MEL melanoma
MALME-3M melanoma = test system: MALME-3M melanoma
MOLT-4 leukemia = test system: MOLT-4 leukemia
NCI-H226 lung = test system: NCI-H226 lung
NCI-H23 lung = test system: NCI-H23 lung
NCI-H460 lung = test system: NCI-H460 lung
NCI-H522 lung = test system: NCI-H522 lung
OVCAR-3 ovarian = test system: OVCAR-3 ovarian
OVCAR-4 ovarian = test system: OVCAR-4 ovarian
OVCAR-5 ovarian = test system: OVCAR-5 ovarian
OVCAR-8 ovarian = test system: OVCAR-8 ovarian
RPMI-8226 leukemia = test system: RPMI-8226 leukemia
RXF 393 renal = test system: RXF 393 renal
SF-268 CNS = test system: SF-268 CNS
SF-295 CNS = test system: SF-295 CNS
SF-539 CNS = test system: SF-539 CNS
SK-MEL-2 melanoma = test system: SK-MEL-2 melanoma
SK-MEL-28 melanoma = test system: SK-MEL-28 melanoma
SK-MEL-5 melanoma = test system: SK-MEL-5 melanoma
SK-OV-3 ovarian = test system: SK-OV-3 ovarian
SN12C renal = test system: SN12C renal
SNB-75 CNS = test system: SNB-75 CNS
SNB-78 CNS = test system: SNB-78 CNS
SR leukemia = test system: SR leukemia
SW-620 colon = test system: SW-620 colon
TK-10 renal = test system: TK-10 renal
U251 CNS = test system: U251 CNS
UACC-257 melanoma = test system: UACC-257 melanoma
UACC-62 melanoma = test system: UACC-62 melanoma
UO-31 renal = test system: UO-31 renal
A498 renal = test system: A498 renal
EKVX NSCLC = test system: EKVX NSCLC
HCC-2998 colon = test system: HCC-2998 colon
SNB-19 CNS = test system: SNB-19 CNS
XF 498 CNS = test system: XF 498 CNS

Work on Cc1cc(=O)[nH]c(NNC(C#N)c2cccc(O)c2)n1 (configuration not stated) yielded a TGI (786-0 renal) greater than 100 µM, a TGI (A549 NSCLC) greater than 100 µM and a TGI (ACHN renal) greater than 100 µM. The TGI (CAKI-1 renal) was greater than 100 µM, the TGI (CCRF-CEM leukemia) was greater than 100 µM and the TGI (COLO 205 colon) was greater than 100 µM. It also gave a TGI (DLD-1 colon) greater than 100 µM, a TGI (DMS 114 small cell lung) greater than 100 µM and a TGI (DMS 273 small cell lung) greater than 100 µM. For the same compound, the TGI (HCT-116 colon) was greater than 100 µM, the TGI (HCT-15 colon) was greater than 100 µM and the TGI (HL-60(TB) leukemia) was greater than 100 µM. For the same compound, the TGI (HOP-18 NSCLC) was greater than 100 µM, the TGI (HOP-62 NSCLC) was greater than 100 µM and the TGI (HOP-92 NSCLC) was greater than 100 µM. For the same compound, the TGI (HT29 colon) was greater than 100 µM, the TGI (IGROV1 ovarian) was greater than 100 µM and the TGI (K-562 leukemia) was greater than 100 µM. It also gave a TGI (KM12 colon) greater than 100 µM, a TGI (KM20L2 colon) greater than 100 µM and a TGI (LOX IMVI melanoma) greater than 100 µM. It also gave a TGI (LXFL 529 NSCLC) greater than 100 µM, a TGI (M14 melanoma) greater than 100 µM and a TGI (M19-MEL melanoma) greater than 100 µM. For the same compound, the TGI (MALME-3M melanoma) was greater than 100 µM, the TGI (MOLT-4 leukemia) was greater than 100 µM and the TGI (NCI-H226 lung) was greater than 100 µM. The TGI (NCI-H23 lung) was greater than 100 µM, the TGI (NCI-H460 lung) was greater than 100 µM and the TGI (NCI-H522 lung) was greater than 100 µM. For the same compound, the TGI (OVCAR-3 ovarian) was greater than 100 µM, the TGI (OVCAR-4 ovarian) was greater than 100 µM and the TGI (OVCAR-5 ovarian) was greater than 100 µM. It also gave a TGI (OVCAR-8 ovarian) greater than 100 µM, a TGI (RPMI-8226 leukemia) greater than 100 µM and a TGI (RXF 393 renal) greater than 100 µM. For the same compound, the TGI (SF-268 CNS) was greater than 100 µM, the TGI (SF-295 CNS) was greater than 100 µM and the TGI (SF-539 CNS) was greater than 100 µM. For the same compound, the TGI (SK-MEL-2 melanoma) was greater than 100 µM, the TGI (SK-MEL-28 melanoma) was greater than 100 µM and the TGI (SK-MEL-5 melanoma) was greater than 100 µM. The TGI (SK-OV-3 ovarian) was greater than 100 µM, the TGI (SN12C renal) was greater than 100 µM and the TGI (SNB-75 CNS) was greater than 100 µM. The TGI (SNB-78 CNS) was greater than 100 µM, the TGI (SR leukemia) was greater than 100 µM and the TGI (SW-620 colon) was greater than 100 µM. It also gave a TGI (TK-10 renal) greater than 100 µM, a TGI (U251 CNS) greater than 100 µM and a TGI (UACC-257 melanoma) greater than 100 µM. It also gave a TGI (UACC-62 melanoma) greater than 100 µM and a TGI (UO-31 renal) greater than 100 µM.
CC1CN1P1(N2CC2C)=NP(N2CC2C)(N2CC2C)=NP(N2CC2C)(N2CC2C)=N1 (configuration not stated) was tested, and the TGI (786-0 renal) was greater than 50 µM, the TGI (A498 renal) was greater than 50 µM and the TGI (A549 NSCLC) was greater than 50 µM. The TGI (ACHN renal) was greater than 50 µM, the TGI (CAKI-1 renal) was greater than 50 µM and the TGI (CCRF-CEM leukemia) was greater than 50 µM. It also gave a TGI (COLO 205 colon) greater than 50 µM, a TGI (DLD-1 colon) greater than 50 µM and a TGI (DMS 273 small cell lung) greater than 50 µM. For the same compound, the TGI (EKVX NSCLC) was greater than 50 µM, the TGI (HCC-2998 colon) was greater than 50 µM and the TGI (HCT-116 colon) was greater than 50 µM. The TGI (HCT-15 colon) was greater than 50 µM, the TGI (HL-60(TB) leukemia) was greater than 50 µM and the TGI (HOP-18 NSCLC) was greater than 50 µM. It also gave a TGI (HOP-92 NSCLC) greater than 50 µM, a TGI (HT29 colon) greater than 50 µM and a TGI (IGROV1 ovarian) greater than 50 µM. It also gave a TGI (K-562 leukemia) greater than 50 µM, a TGI (KM20L2 colon) greater than 50 µM and a TGI (LXFL 529 NSCLC) greater than 50 µM. It also gave a TGI (M14 melanoma) greater than 50 µM, a TGI (M19-MEL melanoma) greater than 50 µM and a TGI (MALME-3M melanoma) greater than 50 µM. For the same compound, the TGI (MOLT-4 leukemia) was greater than 50 µM, the TGI (NCI-H226 lung) was greater than 50 µM and the TGI (NCI-H23 lung) was greater than 50 µM. The TGI (NCI-H460 lung) was greater than 50 µM, the TGI (NCI-H522 lung) was greater than 50 µM and the TGI (OVCAR-3 ovarian) was greater than 50 µM. It also gave a TGI (OVCAR-4 ovarian) greater than 50 µM, a TGI (OVCAR-8 ovarian) greater than 50 µM and a TGI (RPMI-8226 leukemia) greater than 50 µM. The TGI (RXF 393 renal) was greater than 50 µM, the TGI (SF-268 CNS) was greater than 50 µM and the TGI (SF-295 CNS) was greater than 50 µM. For the same compound, the TGI (SF-539 CNS) was greater than 50 µM, the TGI (SK-MEL-28 melanoma) was greater than 50 µM and the TGI (SK-MEL-5 melanoma) was greater than 50 µM. For the same compound, the TGI (SK-OV-3 ovarian) was greater than 50 µM, the TGI (SN12C renal) was greater than 50 µM and the TGI (SNB-19 CNS) was greater than 50 µM. The TGI (SNB-75 CNS) was greater than 50 µM, the TGI (SR leukemia) was greater than 50 µM and the TGI (SW-620 colon) was greater than 50 µM. It also gave a TGI (TK-10 renal) greater than 50 µM, a TGI (U251 CNS) greater than 50 µM and a TGI (UO-31 renal) greater than 50 µM. The TGI (XF 498 CNS) was greater than 50 µM.
